According to patent US7396856B2, “Benzopyran analogs and their use for the treatment of glaucoma” (Alcon, Inc., priority 2002, dated 2008):
Structures can show the parent of a compound that is named as a salt. Where two headings read alike, the source gives them in different places.

Experiments:
5-HT2 receptor = target: T1, 5-HT2 receptor (Rattus norvegicus, UniProt P14842); assay: 5-HT2 functional assay: [Ca2+]i mobilization (FLIPR) in A7r5 cells; format: cell-based; details: for Efficacy (Emax, %) / Emax: percentage of maximum 5-HT-induced response; for EC50: A7r5 rat vascular smooth muscle cells, FLIPR; for Emax: read-out: Efficacy (Emax, %)
T1 construct: endogenous in cells; host or cells: A7r5 rat vascular smooth muscle cells
T1 sequence (P14842 whole entry): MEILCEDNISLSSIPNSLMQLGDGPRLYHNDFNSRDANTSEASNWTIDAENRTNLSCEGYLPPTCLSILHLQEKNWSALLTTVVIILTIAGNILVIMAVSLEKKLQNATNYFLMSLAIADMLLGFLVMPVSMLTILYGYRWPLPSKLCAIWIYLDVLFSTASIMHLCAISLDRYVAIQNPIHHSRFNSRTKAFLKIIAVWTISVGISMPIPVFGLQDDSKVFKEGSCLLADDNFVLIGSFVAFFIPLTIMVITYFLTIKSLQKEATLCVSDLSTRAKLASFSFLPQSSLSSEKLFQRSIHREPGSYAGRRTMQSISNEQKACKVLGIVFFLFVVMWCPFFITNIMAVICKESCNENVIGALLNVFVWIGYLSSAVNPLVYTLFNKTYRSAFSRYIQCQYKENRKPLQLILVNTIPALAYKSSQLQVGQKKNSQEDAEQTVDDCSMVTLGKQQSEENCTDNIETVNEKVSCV
Procedure: 5-HT2 Functional Assay: [Ca^2+]i Mobilization
The receptor-mediated mobilization on intracellular calcium ([Ca^2+]i) was studied using the Fluorescence Imaging Plate Reader (FLIPR) instrument. Rat vascular smooth muscle cells, A7r5, were grown in a normal media of […] and 10 μg/mL gentamycin. Confluent cell monolayers were trypsinized, pelleted, and re-suspended in normal media. Cells were seeded in a 50 μL volume at a density of 20,000 cells/well in a black wall, 96-well tissue culture plate and grown for 2 days.
On the day of the experiment, one vial of FLIPR Calcium Assay Kit dye was re-suspended in 50 mL of a FLIPR buffer consisting of Hank's Balanced Salt Solution (HBSS), 20 mM HEPES, and 2.5 mM probenecid, pH 7.4. Cells were loaded with the calcium-sensitive dye by addition of an equal volume ([…]) to each well of the 96-well plate and incubated with dye for 1 h at 23° C.
Compounds were diluted 1:50 in […]. For “hit” screening, compounds were further diluted 1:10 in FLIPR buffer and tested at a final concentration of 10 μM.
The compound plate and cell plate were placed in the FLIPR instrument. At the beginning of an experimental run, a signal test was performed to check the basal fluorescence signal from the dye-loaded cells and the uniformity of the signal across the plate. The basal fluorescence was adjusted between 8000-12000 counts by modifying the exposure time, the camera F-stop, or the laser power. Instrument settings for a typical assay were the following: laser power 0.3-0.6 W, camera F-stop F/2, and exposure time 0.4 sec. An aliquot (25 μL) of the test compound was added to the existing 100 μL dye-loaded cells at a dispensing speed of 50 μL/sec. Fluorescence data were collected in real-time at 1.0 sec intervals for the first 60 secs and at 6.0 sec intervals for an additional 120 secs.

brain 5-HT2 receptors = brain 5-HT2 receptors (Rattus norvegicus, UniProt P14842); assay: 5-HT2 receptor binding assay ([125I]DOI competition); details: [125I]DOI displacement, rat or human cerebral cortex homogenates
Sequence of brain 5-HT2 receptors (P14842 whole entry): as above
Procedure: 5-HT2 Receptor Binding Assay
The assay mixture is incubated for 1 hour at 23° C. in polypropylene tubes and the assays terminated by rapid vacuum filtration over Whatman GF/B glass fiber filters previously soaked in 0.3% polyethyleneimine using ice-cold buffer. Test compounds (at different concentrations) are substituted for methiothepin. Filter-bound radioactivity is determined by scintillation spectrometry on a beta counter. The data are analyzed using a non-linear, iterative curve-fitting computer program [Trends Pharmacol. Sci., 16, 413 (1995)] to determine the compound affinity parameter. The concentration of the compound needed to inhibit the [^125I]DOI binding by 50% of the maximum is termed the IC50 or Ki value.

[1] = system: intraocular pressure (IOP); assay: Acute IOP response in lasered (hypertensive) eyes of conscious cynomolgus monkeys; format: in vivo; details: lasered monkey eye
Procedure: Acute IOP Response in Lasered (Hypertensive) Eyes of Conscious Cynomolgus Monkeys
Intraocular pressure (IOP) can be determined with an Alcon Pneumatonometer after light corneal anesthesia with 0.1% proparacaine. Eyes are washed with saline after each measurement. After a baseline IOP measurement, test compound is instilled in one 30 μL aliquot to the right eyes only of nine cynomolgus monkeys. Vehicle is instilled in the right eyes of six additional animals. Subsequent IOP measurements are taken at 1, 3, and 6 hours.

[2] = EC50, nM (5-HT2 functional, [Ca2+]i mobilization)
[3] = 1 hour after single topical ocular instillation of 300 μg
[4] = 3 hours after single topical ocular instillation of 300 μg
[5] = 6 hours after single topical ocular instillation of 300 μg

SMILES: COc1cc(CC(C)N)c(OC)c2c1CCOC2.Cl (single isomer, unassigned; (+)) [Compound C, (+) 2-(5,8-Dimethoxy-isochroman-7-yl)-1-methyl-ethylamine hydrochloride]
- Efficacy (Emax, %) (5-HT2 receptor; A7r5 cells, hydrochloride): 69%
- EC50 (5-HT2 receptor; [2]): 43 nM

SMILES: COc1cc(CC(C)N)c(OC)c2c1CCOC2 (racemic) [Compound A, 2-(5,8-Dimethoxy-isochroman-7-yl)-1-methyl-ethylamine hydrochloride]
- Emax (5-HT2 receptor; A7r5 cells): 55%
- EC50 (5-HT2 receptor; [2]): 267 nM

SMILES: COc1cc(CC(C)N)c(OC)cc1I (stereo not drawn) [DOI, reference compound]
- IC50 (brain 5-HT2 receptors): 0.33 nM
- Efficacy (Emax, %) (5-HT2 receptor; A7r5 cells): 31%
- EC50 (5-HT2 receptor; read-out: EC50, nM (5-HT2 functional, [Ca2+]i mobilization)): 30.2 nM

SMILES: COc1cc(CC(C)N)c(OC)c2c1CCOC2.Cl (single isomer, unassigned; (-)) [Compound B, (−) 2-(5,8-Dimethoxy-isochroman-7-yl)-1-methyl-ethylamine hydrochloride]
- Emax (5-HT2 receptor; A7R5, A7r5 cells): 55%
- EC50 (5-HT2 receptor; [2]): 39 nM
- IOP lowering (%) [1, 3]: 15.8%
- IOP lowering (mmHg) [1, 3]: 6.8 mmHg
- IOP lowering (%) [1, 4]: 28.5%
- IOP lowering (mmHg) [1, 4]: 12.5 mmHg
- IOP lowering (%) [1, 5]: 21.3%
- IOP lowering (mmHg) [1, 5]: 9.6 mmHg
